Measurements as given in PMC9247443 (Frontiers in Pharmacology, 2022).
Values joined by “and” are separate entries in the source; they are usually repeats but may differ in a detail not shown here. Equal values may be shown once.

Experiments:
[1] = target: T1, human S1P4 (Homo sapiens, UniProt O95977); test: [^35S]-GTPγS binding; type: biochemical; details: mean ± SEM; for EC50: [^35S]-GTPγS binding, CHO cell membranes; for Human S1P4 IA: intrinsic activity relative to maximal S1P response (100%)
T1 construct: membrane preparation
T1 sequence (O95977 1-384): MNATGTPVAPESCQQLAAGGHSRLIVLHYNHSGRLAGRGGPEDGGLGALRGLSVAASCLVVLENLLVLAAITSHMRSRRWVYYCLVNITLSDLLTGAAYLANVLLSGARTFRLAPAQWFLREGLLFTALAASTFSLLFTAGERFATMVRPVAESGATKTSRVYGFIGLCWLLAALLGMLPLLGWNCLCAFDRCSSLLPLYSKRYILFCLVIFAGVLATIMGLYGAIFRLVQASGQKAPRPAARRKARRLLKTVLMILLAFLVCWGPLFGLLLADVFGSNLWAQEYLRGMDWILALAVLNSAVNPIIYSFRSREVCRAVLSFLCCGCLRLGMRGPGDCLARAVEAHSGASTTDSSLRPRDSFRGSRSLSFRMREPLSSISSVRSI
Excerpt: (§1) Stable clones of Chinese hamster ovary (CHO) cells expressing human S1P1 and S1P5 were generated by transfecting the cells with the N-terminal hemagglutinin-tagged receptor in pcDNA3.1 expression vectors followed by antibiotic selection for S1P1 and S1P5 and picking of clones using cyclic adenosine monophosphate assay, fluorescence-activated flow cytometry using the associated tag as well as functional [^35S]-GTPγS binding assays. Stable clones of CHO cells expressing human S1P2, S1P3, and S1P4 with an N-terminal FLAG tag were purchased from Multispan, Inc. (Hayward, CA, United States; catalog numbers C1051-1, CG1049-1, and CG1052-1 for S1P2, S1P3, and S1P4, respectively). Cells were grown to confluence in adherent culture in 500-cm^2 culture trays before being detached with cell scraper in cell-lifting buffer (10 mM HEPES/154 mM NaCl/6.85 mM ethylenediaminetetraacetic acid [EDTA], pH 7.4) and pelleted by centrifugation for 5 min at 1000 rpm. Cell pellets were then resuspended and homogenized in membrane preparation buffer (10 mM HEPES/10 mM EDTA, pH 7.4) using a Polytron PT 1200E homogenizer (Kinematica, Luzern, Switzerland). To collect the membrane pellet, cell homogenates were centrifuged at 48,000 × g at 4°C for 30 min. After discarding the supernatant, the pellet was rehomogenized and recentrifuged as described above. The final pellet was collected and homogenized in ice-cold resuspension buffer (10 mM HEPES and 0.1 mM EDTA, pH 7.4).
(§2) To quantitate receptor activation and G protein coupling, [^35S]-GTPγS binding assays were performed in 96-well nonbinding surface plates (Corning, New York, New York, United States; catalog number 3604) in a final volume of 200 μl. Test compounds were serial diluted in DMSO directly to the assay plate using the Tecan D300E digital printer in a total volume of 0.4 μl. […] All wells were brought to a total volume of 40 μl with assay buffer, and the reaction was initiated by the addition of 120 μl/well of assay buffer containing a mixture of 40 μg/ml S1P1–S1P5 membranes, 5–50 μM GDP (5 μM for S1P2 and S1P4, 16.67 μM GDP for S1P1 and S1P5, and 50 μM for S1P3), and 2.5 mg/ml of WGA PVT SPA beads (Perkin Elmer catalog number RPNQ0001). Assay plates were sealed and incubated at room temperature with gentle agitation for 30 min before adding 40 μl/well of 5× [^35S]-GTPγS (200 p.m. final) (Perkin Elmer, catalog number NEG030X250UC) in basic assay buffer (20 mM HEPES/10 mM MgCl2/100 mM NaCl/1 mM EDTA, pH 7.4) and then plates were resealed for an additional 40-min incubation at room temperature with gentle agitation. The experiment was terminated by centrifugation of the plates at 1000 rpm for 3 min using an Eppendorf (Hamburg, Germany) 5810R centrifuge and read on the MicroBeta2 microplate scintillation counter. Data were analyzed as raw counts per 40 s per well as collected from the MicroBeta2 counter. Raw counts were analyzed with GraphPad Prism version 8.0.0 using nonlinear regression to generate concentration response curves.

[2] = target: T2, human S1P2 (Homo sapiens, UniProt O95136); test: [^35S]-GTPγS binding; type: biochemical; details: mean ± SEM; for EC50: [^35S]-GTPγS binding, CHO cell membranes; for Human S1P2 IA: intrinsic activity relative to maximal S1P response (100%)
T2 construct: membrane preparation
T2 sequence (O95136 whole entry): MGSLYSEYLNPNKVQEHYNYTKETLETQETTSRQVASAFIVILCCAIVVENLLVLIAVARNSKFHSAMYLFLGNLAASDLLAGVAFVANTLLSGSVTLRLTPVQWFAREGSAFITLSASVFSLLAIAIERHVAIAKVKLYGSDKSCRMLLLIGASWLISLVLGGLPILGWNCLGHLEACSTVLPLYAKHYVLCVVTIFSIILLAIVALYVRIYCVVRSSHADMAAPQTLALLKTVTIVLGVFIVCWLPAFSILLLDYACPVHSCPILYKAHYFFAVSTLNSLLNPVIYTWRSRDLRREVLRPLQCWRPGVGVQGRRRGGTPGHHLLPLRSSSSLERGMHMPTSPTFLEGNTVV
Excerpt: as §1, §2

[3] = target: T3, human S1P5 (Homo sapiens, UniProt Q9H228); test: [^35S]-GTPγS binding; type: biochemical; details: for GTPγS potency for human S1P5 weaker than that for S1P1: S1P5 versus S1P1 EC50; for EC50: [^35S]-GTPγS binding, CHO cell membranes; for EC50 / Human S1P5 IA: mean ± SEM; for Human S1P5 IA: intrinsic activity relative to maximal S1P response (100%)
T3 sequence (Q9H228 whole entry): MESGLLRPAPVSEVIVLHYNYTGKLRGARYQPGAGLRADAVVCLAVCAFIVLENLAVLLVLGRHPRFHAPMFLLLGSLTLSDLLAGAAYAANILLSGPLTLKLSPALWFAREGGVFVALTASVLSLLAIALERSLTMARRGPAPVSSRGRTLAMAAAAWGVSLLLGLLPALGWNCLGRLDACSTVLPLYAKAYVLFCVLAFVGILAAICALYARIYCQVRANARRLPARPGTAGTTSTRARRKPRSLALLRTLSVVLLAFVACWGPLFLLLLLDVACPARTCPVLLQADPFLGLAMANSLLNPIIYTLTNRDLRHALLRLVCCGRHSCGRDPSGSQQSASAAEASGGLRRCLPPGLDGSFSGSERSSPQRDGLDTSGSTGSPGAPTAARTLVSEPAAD
Excerpt: as §1, §2

[4] = target: T4, human S1P1 (Homo sapiens, UniProt P21453); test: [^35S]-GTPγS binding; type: biochemical; details: mean ± SEM; for EC50: [^35S]-GTPγS binding, CHO cell membranes; for Human S1P1 IA: intrinsic activity relative to maximal S1P response (100%)
T4 sequence (P21453 whole entry): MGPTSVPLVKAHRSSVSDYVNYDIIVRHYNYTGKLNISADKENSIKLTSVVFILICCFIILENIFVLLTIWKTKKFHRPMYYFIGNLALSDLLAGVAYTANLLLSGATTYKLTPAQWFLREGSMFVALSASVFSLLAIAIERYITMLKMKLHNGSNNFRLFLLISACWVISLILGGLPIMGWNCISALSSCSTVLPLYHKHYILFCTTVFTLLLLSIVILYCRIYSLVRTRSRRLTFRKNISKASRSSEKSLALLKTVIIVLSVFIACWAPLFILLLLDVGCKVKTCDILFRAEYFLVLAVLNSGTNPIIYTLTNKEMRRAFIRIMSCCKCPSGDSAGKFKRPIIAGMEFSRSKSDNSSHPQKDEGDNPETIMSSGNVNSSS
Excerpt: as §1, §2

[5] = target: T5, human S1P3 (Homo sapiens, UniProt Q99500); test: [^35S]-GTPγS binding; type: biochemical; details: mean ± SEM; for EC50: [^35S]-GTPγS binding, CHO cell membranes; for Human S1P3 IA: intrinsic activity relative to maximal S1P response (100%)
T5 construct: membrane preparation
T5 sequence (Q99500 whole entry): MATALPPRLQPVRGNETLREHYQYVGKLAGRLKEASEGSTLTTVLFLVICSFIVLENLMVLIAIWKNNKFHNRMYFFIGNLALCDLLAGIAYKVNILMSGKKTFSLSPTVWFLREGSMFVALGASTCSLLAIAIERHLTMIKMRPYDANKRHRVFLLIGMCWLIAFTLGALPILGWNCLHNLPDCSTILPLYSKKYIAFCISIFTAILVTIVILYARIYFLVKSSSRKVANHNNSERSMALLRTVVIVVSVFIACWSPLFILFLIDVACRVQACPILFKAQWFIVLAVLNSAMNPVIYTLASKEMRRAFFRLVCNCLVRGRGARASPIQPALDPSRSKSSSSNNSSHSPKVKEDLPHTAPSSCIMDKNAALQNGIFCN
Excerpt: as §1, §2

[6] = target: T4, human S1P1; test: S1P1-mediated β-arrestin recruitment assay (PathHunter eXpress EDG1 CHO-K1); type: cell-based; details: for Emax: CHO-K1, read-out: β-arrestin recruitment Intrinsic Activity, human S1P1; for EC50: EDG1(S1P1)/β-arrestin CHO-K1 cells, 90 min, mean ± SEM (n = 3–5) or SD (n = 2)
Procedure: Human S1P1 β-arrestin assays were carried out using the PathHunter® eXpress EDG1 CHO-K1 β-arrestin GPCR Assay (DiscoverX, Cat# 93-0207E2, including frozen cell stock, assay media, and assay plate). EDG1(S1P1)/β-arrestin CHO-K1 cells were thawed by adding 0.5 ml warm media to the vial. The cells were then transferred to 11.5 ml warm media, seeded at a density of 10,000 cells per well in a 96 well assay plate in a volume of 100 μL per well and incubated overnight in a 37°C CO2 incubator. […] Compounds were then added to the EDG1(S1P1)/β-arrestin CHO-K1 cells—10 μl per well of the 11X stock was added to the 100 ul per well of cells and the plate was incubated for 90 min in a 37°C CO2 incubator. The detection solution was prepared according to the manufacture’s protocol and 55 μl was added to each well of assay plate. The plate was then incubated for 1 h at room temperature before being read on a SpectraMax5 plate reader. Basal β-arrestin recruitment was determined using medium containing DMSO alone.

[7] = target: T3, human S1P5; test: [^3H]-ozanimod competition radioligand binding
Excerpt: as §1
(§3) Assay plates were sealed and incubated at room temperature with gentle agitation for 60 min before filtration as described above.
(§4) Data were again analyzed as raw counts per 60 s per well collected from the MicroBeta2 counter.

[8] = target: T4, human S1P1; test: [^3H]-ozanimod competition radioligand binding
Excerpt: as §1, §3, §4

[9] = target: T3, human S1P5; test: Saturation radioligand binding with [^3H]-ozanimod; details: CHO cell membranes expressing human S1P5, saturation binding
Excerpt: as §1, with “Cell pellets were then resuspended and homogenized in membrane preparation buffer (10 mM HEPES/10 mM EDTA, pH 7.4) using a Polytron PT 1200E homogenizer (Kinematica, Luzern, Switzerland). To collect the membrane pellet, cell homogenates were centrifuged at 48,000 × g at 4°C for 30 min. After discarding the supernatant, the pellet was rehomogenized and recentrifuged as described above. The final pellet was collected and homogenized in ice-cold resuspension buffer (10 mM HEPES and 0.1 mM EDTA, pH 7.4).” left out
Filter plates were prepared by adding 80 μl/well of 0.3% poly (ethyleneimine) and incubating for 60 min at room temperature before washing with 150 ml of filtration buffer (50 mM Tris HCl [pH 7.4], 5 mM MgCl2, and 1 mM EDTA) using a FilterMate-96 harvester. […] Filter plates were then allowed to air dry before the addition of 50 μL/well of MicroScint-20 cocktail, plate sealing, and reading on a MicroBeta2 microplate scintillation counter. […]

Row | Compound | EC50 [1] | Human S1P4 IA [1] | EC50 [2] | GTPγS potency for human S1P5 weaker than that for S1P1 [3] | EC50 [3] | Human S1P5 IA [3] | EC50 [4] | Human S1P1 IA [4] | EC50 [5] | Human S1P3 IA [5] | Emax [6] | EC50 [6] | Ki [7] | Ki [8] | displacement of specific [^3H]-ozanimod binding, S1P5 ([7]; result in words) | displacement of specific [^3H]-ozanimod binding, S1P1 ([8]; result in words) | Human S1P5 IA ([3]; listed as amiselimod-p) | Kd [9] | Human S1P2 IA [2]
1 | O=C(O)C[C@H]1CCc2c1[nH]c1ccc(OCc3ccc(C4CCCC4)c(C(F)(F)F)c3)cc21 [Etrasimod] | 1130 ± 189 nM | 40.4 ± 4.6% | > 10 µM | approximately 10 fold | 58.9 ± 6.75 nM | 82 ± 4.4% | 5.48 ± 0.46 nM | 86.6 ± 1.1% | 1160 ± 354 nM | 81.2 ± 17% | 75.8 ± 1.8% | 11.3 ± 2.32 nM | 16.3 ± 0.71 nM | 6.73 ± 0.62 nM |  |  |  |  | NR (NR indicates no response where the maximal response was less than 10% of that of S1P)
2 | [3H]CC([3H])(C)Oc1ccc(-c2nc(-c3cccc4c3CC[C@@H]4NCCO)no2)cc1C#N (stereo partly drawn) [[^3H]-ozanimod] |  |  |  |  |  |  |  |  |  |  |  |  |  |  |  |  |  | 3.13 nM | 
3 | CCc1cc(/C(C)=N/OCc2ccc(C3CCCCC3)c(C(F)(F)F)c2)ccc1CN1CC(C(=O)O)C1 [Siponimod] | 384 ± 67.8 nM | 81.5 ± 2.4% | > 10 µM |  | 0.3 ± 0.02 nM | 102 ± 9.1% | 0.46 ± 0.05 nM | 82.1 ± 0.9% | > 1110 nM | 90.7 ± 2.5% | 68.6 ± 9.2% | 9.3 ± 2.79 nM | 0.43 ± 0.08 nM | 0.74 ± 0.09 nM |  |  |  |  | NR (NR indicates no response where the maximal response was less than 10% of that of S1P)
4 | CCC/N=C1\S/C(=C\c2ccc(OC[C@H](O)CO)c(Cl)c2)C(=O)N1c1ccccc1C [Ponesimod] | > 10000 nM | 26.5 ± 2.5% | > 10 µM | approximately 10 fold | 43.2 ± 12 nM | 92.9 ± 9.8% | 3.42 ± 1.17 nM | 85.8 ± 6.2% | 89.5 ± 14.3 nM | 82.1 ± 7.5% | 61.2 ± 1.6% | 2.66 ± 0.42 nM | 17.4 ± 4.32 nM | 9.37 ± 1.31 nM |  |  |  |  | NR (NR indicates no response where the maximal response was less than 10% of that of S1P)

Second part, led by results:

Row | EC50 [1] | Human S1P4 IA [1] | EC50 [2] | GTPγS potency for human S1P5 weaker than that for S1P1 [3] | EC50 [3] | Human S1P5 IA [3] | EC50 [4] | Human S1P1 IA [4] | EC50 [5] | Human S1P3 IA [5] | Emax [6] | EC50 [6] | Ki [7] | Ki [8] | displacement of specific [^3H]-ozanimod binding, S1P5 ([7]; result in words) | displacement of specific [^3H]-ozanimod binding, S1P1 ([8]; result in words) | Human S1P5 IA ([3]; listed as amiselimod-p) | Kd [9] | Compound | Human S1P2 IA [2]
5 | 1490 ± 306 nM | 39.4 ± 5.3% | > 10 µM | approximately 10 fold | 5.84 ± 0.51 nM | 97 ± 3.7% |  | 85 ± 1% | > 1110 nM | 89.4 ± 7.4% | 68.7 ± 3.5% |  | 1.93 ± 0.07 nM |  |  |  |  |  | CC(C)Oc1ccc(-c2nc(-c3cccc4c3CC[C@@H]4NCCO)no2)cc1C#N [Ozanimod] | 34.8 ± 1%
6 | 2.06 ± 0.3 nM | 59.2 ± 5.4% |  |  |  | 74% and 74 ± 5.1% |  | 84.9 ± 2.3% |  | 106.5 ± 8.3% | 79.8 ± 4.3% |  |  |  |  |  |  |  | CCCCCCCCc1ccc(CCC(N)(CO)COP(=O)(O)O)cc1 (stereo not drawn) [FTY720-p, FTY720-phosphate] | 33.2 ± 1%
7 |  |  |  |  |  |  |  |  |  |  |  |  |  | 2.33 ± 0.17 nM | completely displaced | completely displaced |  |  | CCCCCCCCCCCCC/C=C/[C@@H](O)[C@@H](N)COP(=O)(O)O [S1P, sphingosine 1-phosphate] | 
8 | 2.23 ± 0.13 nM | 122.2 ± 3.6% | > 4 µM |  | 0.58 ± 0.08 nM | 76.6 ± 6.9% | 0.15 ± 0.01 nM | 84.1 ± 1.6% | 19 ± 2.98 nM | 29.1 ± 1.6% | 76.1 ± 11.6% | 2.83 ± 2.21 nM | 0.25 ± 0.04 nM | 0.13 ± 0.02 nM |  |  | 76.6% |  | CCCCCCCOc1ccc(CCC(N)(CO)COP(=O)(O)O)cc1C(F)(F)F (stereo not drawn) [Amiselimod-p] | NR (NR indicates no response where the maximal response was less than 10% of that of S1P)
9 | 3.13 ± 0.29 nM | 56.3 ± 3.8% | > 10 µM |  | 0.69 ± 0.19 nM | 45.8 ± 7.6% | 0.26 nM | 85.7 ± 3.6% | 3.17 ± 0.26 nM | 25.7 ± 3.8% | 72.3 ± 5.4% | 2.98 ± 0.96 nM | 0.24 ± 0.04 nM | 0.22 ± 0.02 nM |  |  |  |  | NC(CO)(CCc1ccc(Sc2cccc(OCc3ccccc3)c2)cc1Cl)COP(=O)(O)O (stereo not drawn) [KRP-203-p, KRP-203-phosphate] | NR (NR indicates no response where the maximal response was less than 10% of that of S1P)
